Earlier results in patent US20130190368A1, “NOVEL POLYMORPHS OF FEBUXOSTAT” (HETERO RESEARCH FOUNDATION, priority 2010, published 2013).

Settings: compared to allopurinol

Cc1nc(-c2ccc(OCC(C)C)c(C#N)c2)sc1C(=O)O [febuxostat, 2-[3-cyano-4-(2-methylpropoxy)phenyl]-4-methyl-5-thiazolecarboxylic acid]
amount of initial gout flares or surface area of gout tophi: no difference | individuals with decreased levels of uric acid: more individuals treated with febuxostat had decreased levels of uric acid
